# Data from patent US10597388B2, “Pyridazinone herbicides” (FMC CORPORATION, priority 2014, dated 2020).
# How the values were obtained:
# Experiment in all cases: Test D controlled growth environment herbicide test, pre- and postemergence
# Assay type in all cases: in vivo
# [1] = system: Russian thistle (Salsola kali)
# Description: (§1) Seeds of plant species selected from bluegrass (annual bluegrass, Poa annua), blackgrass (Alopecurus myosuroides), Canada thistle (Cirsium arvense), canarygrass (Phalaris minor), chickweed (common chickweed, Stellaria media), geranium, cutleaf (cutleaf geranium, Geranium dissectum), galium (catchweed bedstraw, Galium aparine), bromegrass, downy (downy bromegrass, Bromus tectorum), field poppy (Papaver rhoeas), field violet (Viola arvensis), foxtail, green (green foxtail, Setaria viridis), deadnettle (henbit deadnettle, Lamium amplexicaule), ryegrass, Italian (Italian ryegrass, Lolium multiflorum), kochia (Kochia scoparia), lambsquarters (Chenopodium album), oilseed rape (Brassica napus), pigweed (Amaranthus retroflexus), chamomile (scentless chamomile, Matricaria inodora), Russian thistle (Salsola kali), speedwell (bird's-eye speedwell, Veronica persica), barley, spring (spring barley, Hordeum vulgare), wheat, spring (spring wheat, Triticum aestivum), buckwheat, wild (wild buckwheat, Polygonum convolvulus), mustard, wild (wild mustard, Sinapis arvensis), oat, wild (wild oat, Avena fatua), radish, wild (wild radish, Raphanus raphanistrum), windgrass (Apera spica-venti), barley, winter (winter barley, Hordeum vulgare), and wheat, winter (winter wheat, Triticum aestivum) were planted into a silt loam soil and treated preemergence with test chemicals formulated in a non-phytotoxic solvent mixture which included a surfactant.
# (§2) At the same time, these species were planted in pots containing Redi-Earth® planting medium (Scotts Company, 14111 Scottslawn Road, Marysville, Ohio 43041) comprising spaghnum peat moss, vermiculite, wetting agent and starter nutrients and treated with postemergence applications of the test chemicals formulated in the same manner. Plants ranged in height from 2 to 18 cm (1- to 4-leaf stage). Treated plants and controls were maintained in a controlled growth environment for 14 to 21 d after which time all species were compared to controls and visually evaluated. Plant response ratings, summarized in Table D, are based on a scale of 0 to 100 where 0 is no effect and 100 is complete control. A dash (-) response means no test result.
# [2] = system: barley, winter (winter barley, Hordeum vulgare)
# Description: as §1, §2
# [3] = system: bromegrass, downy (downy bromegrass, Bromus tectorum)
# Description: as §1, §2
# [4] = system: buckwheat, wild (wild buckwheat, Polygonum convolvulus)
# Description: as §1, §2
# [5] = system: canarygrass (Phalaris minor)
# Description: as §1, §2
# [6] = system: chickweed (common chickweed, Stellaria media)
# Description: as §1, §2
# [7] = system: field violet (Viola arvensis)
# Description: as §1, §2
# [8] = system: galium (catchweed bedstraw, Galium aparine)
# Description: as §1, §2
# [9] = system: kochia (Kochia scoparia)
# Description: as §1, §2
# [10] = system: oat, wild (wild oat, Avena fatua)
# Description: as §1, §2
# [11] = system: pigweed (Amaranthus retroflexus)
# Description: as §1, §2
# [12] = system: radish, wild (wild radish, Raphanus raphanistrum)
# Description: as §1, §2
# [13] = system: windgrass (Apera spica-venti)
# Description: as §1, §2
# [14] = Postemergence, 31 g ai/ha, scale 0 to 100 (0 no effect, 100 complete control)
# [15] = Postemergence, 125 g ai/ha, visual rating on scale 0 (no effect) to 100 (complete control), 14 to 21 d
# [16] = Postemergence, 250 g ai/ha, scale 0 to 100 (0 no effect, 100 complete control)
# [17] = Preemergence, 62 g ai/ha, scale 0 to 100 (0 no effect, 100 complete control)
# [18] = Preemergence, 125 g ai/ha, scale 0 to 100 (0 no effect, 100 complete control)
# [19] = Preemergence, 250 g ai/ha, scale 0 to 100 (0 no effect, 100 complete control)
# [20] = postemergence, 62 g ai/ha, scale 0 to 100, 0 no effect, 100 complete control
smiles,measurement,setting,value
CCC(=O)Oc1c(C)nn(C)c(=O)c1-c1c(C)sc2c(C)cc(C)cc12 [Compound 28],Russian Thistle plant response rating,[1]; [14],70
same,"Plant response rating, Russian Thistle",[1]; [15],80
same,"Plant response rating, Russian Thistle",[1]; [16],85
same,"Plant response rating (scale of 0 to 100), Russian Thistle","[1]; Preemergence, 31 g ai/ha",0
same,"Plant response rating, Russian Thistle",[1]; [17],0
same,"Plant response rating, Russian Thistle",[1]; [18],15
same,"Plant response rating, Russian Thistle",[1]; [19],35
same,"Plant response rating, Russian Thistle",[1]; [20],75
same,"Plant response rating, Barley, Winter",[2]; [14],0
same,"Plant response rating, Barley, Winter",[2]; [15],5
same,"Plant response rating, Barley, Winter",[2]; [16],5
same,"Plant response rating (scale of 0 to 100), Barley, Winter","[2]; Preemergence, 31 g ai/ha",0
same,"Plant response rating, Barley, Winter",[2]; [17],0
same,"Plant response rating, Barley, Winter",[2]; [18],15
same,"Barley, Winter plant response rating",[2]; [19],15
same,"Plant response rating, Barley, Winter",[2]; [20],0
same,"Bromegrass, Downy plant response rating",[3]; [14],15
same,"Plant response rating, Bromegrass, Downy",[3]; [15],40
same,"Plant response rating, Bromegrass, Downy",[3]; [16],70
same,"Plant response rating (scale of 0 to 100), Bromegrass, Downy","[3]; Preemergence, 31 g ai/ha",45
same,"Plant response rating, Bromegrass, Downy",[3]; [17],55
same,"Plant response rating, Bromegrass, Downy",[3]; [18],70
same,"Plant response rating, Bromegrass, Downy",[3]; [19],85
same,"Plant response rating, Bromegrass, Downy",[3]; [20],25
same,"Buckwheat, Wild plant response rating",[4]; [14],100
same,"Plant response rating, Buckwheat, Wild",[4]; [15],100
same,"Plant response rating, Buckwheat, Wild",[4]; [16],100
same,"Plant response rating (scale of 0 to 100), Buckwheat, Wild","[4]; Preemergence, 31 g ai/ha",0
same,"Plant response rating, Buckwheat, Wild",[4]; [17],0
same,"Plant response rating, Buckwheat, Wild",[4]; [18],20
same,"Plant response rating, Buckwheat, Wild",[4]; [19],100
same,"Plant response rating, Buckwheat, Wild",[4]; [20],100
same,Canarygrass plant response rating,[5]; [14],75
same,"Plant response rating, Canarygrass",[5]; [15],80
same,"Plant response rating, Canarygrass",[5]; [16],85
same,"Plant response rating (scale of 0 to 100), Canarygrass","[5]; Preemergence, 31 g ai/ha",85
same,"Plant response rating, Canarygrass",[5]; [17],85
same,"Plant response rating, Canarygrass",[5]; [18],95
same,"Plant response rating, Canarygrass",[5]; [19],95
same,"Plant response rating, Canarygrass",[5]; [20],75
same,Chickweed plant response rating,[6]; [14],100
same,"Plant response rating, Chickweed",[6]; [15],100
same,"Plant response rating, Chickweed",[6]; [16],100
same,"Plant response rating (scale of 0 to 100), Chickweed","[6]; Preemergence, 31 g ai/ha",100
same,"Plant response rating, Chickweed",[6]; [17],100
same,"Plant response rating, Chickweed",[6]; [18],100
same,"Plant response rating, Chickweed",[6]; [19],100
same,"Plant response rating, Chickweed",[6]; [20],100
same,Field Violet plant response rating,[7]; [14],80
same,"Plant response rating, Field Violet",[7]; [15],85
same,"Plant response rating, Field Violet",[7]; [16],90
same,"Plant response rating (scale of 0 to 100), Field Violet","[7]; Preemergence, 31 g ai/ha",75
same,"Plant response rating, Field Violet",[7]; [17],85
same,"Plant response rating, Field Violet",[7]; [18],100
same,"Plant response rating, Field Violet",[7]; [19],100
same,"Plant response rating, Field Violet",[7]; [20],75
same,Galium plant response rating,[8]; [14],100
same,"Plant response rating, Galium",[8]; [15],100
same,"Plant response rating, Galium",[8]; [16],100
same,"Plant response rating (scale of 0 to 100), Galium","[8]; Preemergence, 31 g ai/ha",15
same,"Plant response rating, Galium",[8]; [17],60
same,"Plant response rating, Galium",[8]; [18],85
same,"Plant response rating, Galium",[8]; [19],100
same,"Plant response rating, Galium",[8]; [20],100
same,Kochia plant response rating,[9]; [14],35
same,"Plant response rating, Kochia",[9]; [15],50
same,"Plant response rating, Kochia",[9]; [16],75
same,"Plant response rating (scale of 0 to 100), Kochia","[9]; Preemergence, 31 g ai/ha",20
same,"Plant response rating, Kochia",[9]; [17],20
same,"Plant response rating, Kochia",[9]; [18],30
same,"Plant response rating, Kochia",[9]; [19],65
same,"Plant response rating, Kochia",[9]; [20],40
same,"Oat, Wild plant response rating",[10]; [14],75
same,"Plant response rating, Oat, Wild",[10]; [15],90
same,"Plant response rating, Oat, Wild",[10]; [16],95
same,"Plant response rating (scale of 0 to 100), Oat, Wild","[10]; Preemergence, 31 g ai/ha",85
same,"Plant response rating, Oat, Wild",[10]; [17],85
same,"Plant response rating, Oat, Wild",[10]; [18],90
same,"Plant response rating, Oat, Wild",[10]; [19],100
same,"Plant response rating, Oat, Wild",[10]; [20],85
same,Pigweed plant response rating,[11]; [14],75
same,"Plant response rating, Pigweed",[11]; [15],100
same,"Plant response rating, Pigweed",[11]; [16],90
same,"Plant response rating (scale of 0 to 100), Pigweed","[11]; Preemergence, 31 g ai/ha",90
same,"Plant response rating, Pigweed",[11]; [17],100
same,"Plant response rating, Pigweed",[11]; [18],100
same,"Plant response rating, Pigweed",[11]; [19],100
same,"Plant response rating, Pigweed",[11]; [20],90
same,"Radish, Wild plant response rating",[12]; [14],85
same,"Plant response rating, Radish, Wild",[12]; [15],85
same,"Plant response rating, Radish, Wild",[12]; [16],95
same,"Plant response rating (scale of 0 to 100), Radish, Wild","[12]; Preemergence, 31 g ai/ha",0
same,"Plant response rating, Radish, Wild",[12]; [17],0
same,"Plant response rating, Radish, Wild",[12]; [18],35
same,"Plant response rating, Radish, Wild",[12]; [19],30
same,"Plant response rating, Radish, Wild",[12]; [20],100
same,Windgrass plant response rating,[13]; [14],70
same,"Plant response rating, Windgrass",[13]; [15],85
same,"Plant response rating, Windgrass",[13]; [16],85
same,"Plant response rating (scale of 0 to 100), Windgrass","[13]; Preemergence, 31 g ai/ha",70
same,"Plant response rating, Windgrass",[13]; [17],75
same,"Plant response rating, Windgrass",[13]; [18],90
same,"Plant response rating, Windgrass",[13]; [19],100
same,"Plant response rating, Windgrass",[13]; [20],80
